{"source": "patent US6287813A", "about": "“Antibiotic-based gene regulation system” (Cistronics Cell Technology GmbH, priority 1999, dated 2001)", "biological_target": "T1, TET-responsive system (tTA/PhCMV*-1) (Escherichia coli, UniProt P04483)", "T1 construct": "expressed in transfected cells; host or cells: CHO-K1 clones CHO-TWIN195 and CHO-TWIN1108 (pTWIN1)", "T1 sequence (P04483 whole entry, added parts left off)": "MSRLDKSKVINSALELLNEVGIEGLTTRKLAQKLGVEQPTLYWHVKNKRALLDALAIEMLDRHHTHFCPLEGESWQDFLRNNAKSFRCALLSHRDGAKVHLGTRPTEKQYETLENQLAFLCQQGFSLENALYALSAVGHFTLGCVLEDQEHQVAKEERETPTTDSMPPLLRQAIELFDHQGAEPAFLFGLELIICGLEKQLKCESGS", "assay": "SEAP reporter assay, CHO-TWIN clones transfected with pMF111 (PhCMV*-1-SEAP)", "type": "cell-based", "conditions": "CHO-TWIN1108 + pMF111; for SEAP Production (%): crossregulation", "text": "pTWIN contains both PIT and tTA in a PSV40 -driven dicistronic configuration. For construction of pTWIN, PIT was first transferred from pMF156 as an EcoRI/HindIII fragment to the corresponding sites of pSBC-1 (EcoRI/HindIII; resulting in pMF167) before the PIT expression unit could be fused to the tTA expression unit contained on pSBC2-tTA (Fussenegger et al., 1997, supra) via SspI/NotI sites. Thus, pTWIN contains the dicistronic PSV40 -PIT-IRES-tTA-pA expression cassette.\nChinese hamster ovary cells (CHO-K1, ATCC: CCL 61), Baby hamster kidney cells (BHK-21, ATCC: CRL-8544), and HeLa cells (ATCC: CRL-7923) as well as stable cell lines CHO-PIT1, CHO-PIT2, CHO-TWIN195, CHO-TWIN1108 and CHO-PIT1-SEAP were cultured as described before (Fussenegger et al., 1998, Nat. Biotechnol. 16,468-472) in the presence of appropriate antibiotics: G418 400 μg/ml; zeocin 100 μg/ml. Optimized CaPO4 protocols were used for high efficiency transient transfection of all cell lines (id). Transient transfected cells were routinely analyzed after 48 h for GFP or SEAP expression using fluorescence microscopy and p-nitrophenolphosphate-based light absorbance timecourse, respectively, as described before (Fussenegger et al., 1998, Nat. Biotechnol. 16, 468-472; Berger et al., 1988, Gene 66, 1-10 b). For construction of stable CHO-PIT and CHO-TWIN cell lines, CHO-K1 was cotransfected either with pMF156 or pTWIN1 and pSV2neo carrying the G418 resistance gene. CHO-PIT1-SEAP was constructed by cotransfection of pMF172 and pZeoSV2 (Invitrogen). For assessment of dose-response characteristics of PPIR -regulated gene expression, CHO-PIT1-SEAP were cultured at cell densities of 150,000/ml for 48 at various PI concentrations. The mixed populations were cloned using FACS-mediated single-cell-sorting (FACStar^Plus; Beckton Dickinson). Gel retardation assay were performed as described (Salah-Bey et al., 1995, supra) using Pip purified from an overproducing strain of E. coli. Pip (0.02 pmol) was titrated with a range of antibiotic concentrations in a reaction volume of 20 μl. Protein solutions were pre-incubated at room temperature for 15 min. in the absence or presence of PI or its derivative quinupristin in a buffer containing 10 mM Tris (pH 7.8), 10 mM MgCl2, 300 mM NaCl, 2 mM DTT and 10% glycerol. An EcoRI-HindII PPTR fragment (0.02 pmol) containing three Pip binding sites (radiolabelled using α-^32 P)dATP was added and incubated for 15 min. To minimize nonspecific protein binding and increase protein stability, 2 μg of poly dIdC and 20 μg BSA were included in the incubation mix. Protein-DNA complexes were separated on 5% polyacrylamide,TBE gels and visualized by autoradiography.\nCHO-TWIN195 and CHO-TWIN1108 were transfected under identical conditions with the isogenic plasmids containing the SEAP gene under control of the tTA-activated promoter PhCMV*-1 (pMF111) or the PIT-activated promoter PPIR (pMF172). Transfected cells were grown for 48 h in the presence or absence of either antibiotic prior to assay of SEAP activity.\nTable 6: Comparison of the regulation performance of streptogramin- (PI and virginiamycin; VIR) and tetracycline-based gene regulation systems. The two cell clones CHO-TWIN195 and CHO-TWIN1108 containing both pristinamycin- and tetracycline-dependent transactivators were transfected with either the streptogramin-responsive or the TET-responsive SEAP reporter plasmids pMF172 (PPIR -SEAP) and pMF111 (PhCMV*-1 -SEAP), respectively, and the relative SEAP production was assessed. SEAP production values are normalized by SEAP activities under the antibiotic-free, active promoter conditions as follows: pMF172 in CHO-TWIN195:1.7 mU/ml; in CHO-TWIN1108 : 1.8 mU/ml. pMF111 in CHO-TWIN195 : 18.6 mU/ml; in CHO-TWIN1108 : 19.2 mU/ml.\nTable 7: Compatibility of the streptogramin- and tetracycline-based gene regulation systems. Crossregulation of pristinamycin (PI) and the tetracyclines doxycycline (DOX) and tetracycline (TET). […]"}
{"substance": "pristinamycin I [PI]", "values": [{"measurement": "Effect on expression from the TET-responsive system", "result": "no effect"}, {"measurement": "SEAP Production (%)", "setting": "2 μg/ml", "result": "94.8 ± 5.3", "unit": "%"}, {"measurement": "SEAP Production (%)", "setting": "10 μg/ml, 2880 min", "result": "92.4 ± 7.9", "unit": "%"}]}
